Assay results as given in ChEMBL document CHEMBL4819080, “Cannabidiol-dihydroartemisinin conjugates for ameliorating neuroinflammation with reduced cytotoxicity” (Bioorg Med Chem, 2021).
Calls of active or inactive are those of the source. No cut-off for these calls is given here.

Tests used:
[1] = tested on: BV-2; experiment: Cytotoxicity against mouse BV-2 cells assessed as reduction in cell viability upto 200 uM incubated for 24 hrs by crystal violet dye based assay; details: bv-2, 24 h
[2] = tested on: BV-2; experiment: Antiinflammatory activity in mouse BV-2 cells assessed as reduction in LPS-induced iNOS mRNA expression at 100 uM incubated for 6 hrs by qRT-PCR analysis; type: functional, cell-based
[3] = tested on: BV-2; experiment: Antiinflammatory activity in mouse BV-2 cells assessed as reduction in LPS-induced nitric oxide production incubated for 24 hrs by 2, 3-diaminonaphthalene based assay; type: functional, cell-based
[4] = tested on: BV-2; experiment: Antiinflammatory activity in mouse BV-2 cells assessed as reduction in LPS-induced IL-1beta mRNA expression at 100 uM incubated for 6 hrs by qRT-PCR analysis; type: functional, cell-based
[5] = tested on: BV-2; experiment: Antiinflammatory activity in mouse BV-2 cells assessed as reduction in LPS-induced nitric oxide production incubated for 24 hrs in presence of DHA by 2, 3-diaminonaphthalene based assay; type: functional, cell-based
[6] = tested on: BV-2; experiment: Cytotoxicity against mouse BV-2 cells assessed as reduction in cell viability incubated for 24 hrs by crystal violet dye based assay; details: BV-2, 24 h
[7] = tested on: BV-2; experiment: Cytotoxicity against mouse BV-2 cells assessed as reduction in cell viability incubated for 24 hrs in presence of DHA by crystal violet dye based assay; details: bv-2, 24 h
[8] = tested on: BV-2; experiment: Inhibition of LPS-induced NF-kappaB activation in mouse BV-2 cells expressing luciferase gene at 5 to 100 uM incubated for 24 hrs by steady-glo luciferase assay; type: cell-based; details: dose 5-100 µM
[9] = tested on: BV-2; experiment: Antiinflammatory activity in mouse BV-2 cells assessed as reduction in LPS-induced IL-1beta mRNA expression incubated for 6 hrs by qRT-PCR analysis; type: functional, cell-based; details: dose 20-100 µM
[10] = tested on: BV-2; experiment: Inhibition of LPS-induced NF-kappaB activation in mouse BV-2 cells assessed as reduction in IRAK1 phosphorylation at 100 uM incubated for 1 hr by Western blot analysis; type: cell-based
[11] = tested on: BV-2; experiment: Inhibition of LPS-induced NF-kappaB activation in mouse BV-2 cells assessed as reduction in IKKalpha/beta phosphorylation at 100 uM incubated for 1 hr by Western blot analysis; type: cell-based
[12] = tested on: BV-2; experiment: Inhibition of LPS-induced MAPK activation in mouse BV-2 cells assessed as reduction in JNK phosphorylation at 100 uM incubated for 1 hr by Western blot analysis; type: cell-based
[13] = tested on: BV-2; experiment: Antiinflammatory activity in mouse BV-2 cells assessed as reduction in LPS-induced iNOS mRNA expression incubated for 6 hrs by qRT-PCR analysis; type: functional, cell-based; details: dose 20-100 µM
[14] = tested on: BV-2; experiment: Inhibition of LPS-induced MAPK activation in mouse BV-2 cells assessed as reduction in p38 phosphorylation at 100 uM incubated for 1 hr by Western blot analysis; type: cell-based
[15] = tested on: BV-2; experiment: Inhibition of LPS-induced NF-kappaB activation in mouse BV-2 cells assessed as reduction in NF-kappaB p65 phosphorylation at 100 uM incubated for 1 hr by Western blot analysis; type: cell-based
[16] = tested on: BV-2; experiment: Inhibition of LPS-induced MAPK activation in mouse BV-2 cells assessed as reduction in ERK phosphorylation at 100 uM incubated for 1 hr by Western blot analysis; type: cell-based
[17] = Mus musculus, BV-2, 24 h, read-out: IC50

Structure (SMILES)	Activity [1]	inhibition [2]	inhibition [4]	inhibition [3]	IC50 [3, 17] [µM]	IC50 [6] [µM]	other results
C=C(C)[C@@H]1CCC(C)=C[C@H]1c1c(O)cc(CCCCC)cc1OCCCCO[C@H]1O[C@@H]2O[C@]3(C)CC[C@H]4[C@H](C)CC[C@@H]([C@H]1C)[C@@]24OO3	Non-Toxic	inactive	inactive				IC50 ([3]; bv-2): Not Active
C=C(C)[C@@H]1CCC(C)=C[C@H]1c1c(O)cc(CCCCC)cc1OCCO[C@H]1O[C@@H]2O[C@]3(C)CC[C@H]4[C@H](C)CC[C@@H]([C@H]1C)[C@@]24OO3	Non-Toxic	inactive	inactive	Dose-Dependent Effect	55		
C=C(C)[C@@H]1CCC(C)=C[C@H]1c1c(O)cc(CCCCC)cc1O [CANNABIDIOL]					10.3	8	inhibition [5]: Active; Activity [7]: Toxic
C=C(C)[C@@H]1CCC(C)=C[C@H]1c1c(O)cc(CCCCC)cc1OCCCO[C@H]1O[C@@H]2O[C@]3(C)CC[C@H]4[C@H](C)CC[C@@H]([C@H]1C)[C@@]24OO3	Non-Toxic			Dose-Dependent Effect	11.7		inhibition [8]: Active; inhibition [9]: Dose-Dependent Effect; inhibition [10]: Active; inhibition [11]: Active; inhibition [12]: inactive; inhibition [13]: Dose-Dependent Effect; inhibition [14]: inactive; inhibition [15]: Active; inhibition [16]: inactive
C[C@H]1[C@@H](O)O[C@@H]2O[C@@]3(C)CC[C@H]4[C@H](C)CC[C@@H]1[C@@]24OO3 [ARTENIMOL]					7.4	120	
